Data from paper PMC12265377, “CC48 a new CB2R agonist/FAAH inhibitor dual drug blocks gastric cancer progression and overcomes paclitaxel resistance” (Journal of Experimental & Clinical Cancer Research : CR, 2025).

How the values were obtained:
Format in all cases: cell-based, human
HGC27-R cells [1] = assay: Muse caspase 3/7 activation assay; conditions: 48 h
Description: (§1) After the specified drug treatments, the cells were processed using the Muse Annexin V/Dead Cell Assay Kit (Luminex Corporation, Austin, USA) for quantitative analysis of live, early/ late apoptotic, and dead cells on a Muse Cell Analyzer. Briefly, the assay utilized Annexin V to detect phosphatidylserine on the external membrane of apoptotic cells. The fluorescent signal emitted by dye-conjugated antibodies was detected by flow cytometry technology (Muse Cell Analyzer, Luminex Corporation, Austin, USA). 7-Amino-Actinomycin D (7-AAD) dead cell marker was also used. The cells were then analyzed according to the user’s guide. […] After 48 h treatments the cells were processed according to the user’s guide and analyzed with the Muse caspase-3/7 kit (Millipore).The assay provides the relative percentage of living, early/late apoptotic or dead cells.

HGC27-S cells [2] = assay: Muse caspase 3/7 activation assay; conditions: 48 h
Description: as §1

NCI-N87 cells [3] = assay: Muse caspase 3/7 activation assay
Description: as §1

HGC27-R cells [4] = assay: Muse Ki67 cell proliferation assay
Description: (§2) After the specified drug treatments, the cells were processed with the Muse Ki67 cell proliferation kit, which identified actively proliferating cells based on the expression of Ki67, a nuclear protein present in the active phases of the cell cycle (G1, S, G2, and M phases) and absent in the resting G0 phase. The Muse Ki67 Proliferation Assay was used with the Guava Muse Cell Analyzer according to the manufacturer’s instructions (Luminex Corporation, Austin, USA). Briefly, the cells were stained after fixation and permeabilization procedures, using Hu Ki67 or Hu IgG1 control fluorochrome-conjugated antibodies to distinguish Ki67(+) or Ki67(-) cells, respectively. The software provided the percentage of both Ki67(+) and Ki67(-) cells.

HGC27-S cells [5] = assay: Muse Ki67 cell proliferation assay; conditions: HGC27-S, 48 h
Description: as §2

NCI-N87 cells [6] = assay: Muse Ki67 cell proliferation assay; conditions: NCI-N87, single treatment (10 µM compound; 2 nM PTX); control 78.2%
Description: as §2

[7] = single treatment, untreated 6.6%
[8] = representative flow cytometry chart, 48 h, 10 µM CC48, PTX, single or combined as labelled
[9] = representative flow cytometry chart, 10 µM CC48, PTX, single or combined as labelled

CC(=O)O[C@H]1C(=O)[C@@]2(C)[C@H]([C@H](OC(=O)c3ccccc3)[C@]3(O)C[C@H](OC(=O)[C@H](O)[C@@H](NC(=O)c4ccccc4)c4ccccc4)C(C)=C1C3(C)C)[C@]1(OC(C)=O)CO[C@@H]1C[C@@H]2O [PTX, Paclitaxel]
apoptotic cells (caspase 3/7 activation) (HGC27-R cells [1]; single treatment (4 nM PTX, 6 µM AM630, 10 µM others), untreated 18.9%): 21.4% | dead cells (HGC27-R cells [1]; [7]): 7.70% | apoptotic cells (caspase 3/7 activation) (HGC27-S cells [2]; single treatment (4 nM PTX, 6 µM AM630, 10 µM others), untreated 13.05%): 26.2% | dead cells (HGC27-S cells [2]; [7]): 23.7% | cells with activated caspase 3/7 (NCI-N87 cells [3]; NCI-N87, single treatment (2 nM PTX, 6 µM AM630, 10 µM others), untreated 6.35%): 14.6% | dead cells (NCI-N87 cells [3]; NCI-N87, single treatment, control 5.8% / 5.6%): 8.1% | Ki67(+) cells (HGC27-R cells [4]; [8]): 80.50% | Ki67(-) cells (HGC27-R cells [4]; [8]): 19.50% | percentage of Ki67+ cells (HGC27-R cells [4]; single treatment, control 82.95%): 80.5% | percentage of Ki67+ cells (HGC27-S cells [5]; single treatment (10 µM CC48; 4 nM PTX), control 80.50%): 58.1% | Ki67(+) cells (HGC27-S cells [5]; [9]): 58.10% | Ki67(-) cells (HGC27-S cells [5]; [9]): 41.90% | percentage of Ki67+ cells (NCI-N87 cells [6]): 68.1%
